Target: T1, human Histamine H3 receptor (hH3R) (Homo sapiens, UniProt Q9Y5N1)
T1 construct: expressed in transfected cells; host or cells: CHO cells (Chinese Hamster Ovary); membranes
Test: GTPγS Binding Assay (antagonist activity, [35S]GTPγS, (R)-α-methyl histamine 30 nM)
Assay type: biochemical
Settings: membranes from CHO cells expressing hH3R, 90 minutes at room temperature
Experimental: Guanosine 5′-O-(3-[^35S]thio)triphosphate [GTPγS] Binding Assay
A GTPγS binding assay can be used to investigate antagonist properties of compounds in CHO cells (Chinese Hamster Ovary) transfected with human Histamine H3 receptor (hH3R). Membranes from CHO cells expressing hH3R (10 μg/well) are diluted in GTPγS assay buffer (20 mM Hepes, 10 mM MgCl2, 100 mM NaCl, pH 7.4) and preincubated with saponine (3 μg/ml), GDP (10 μM) and PVT-WGA SPA beads (125 μg/well) (Amersham) for 30 minutes. To determine antagonist activity, (R)-α-methyl histamine (30 nM) is added in 96 well SPA plate with [^35S]GTPγS (0.2 nM) and various concentration of H3R antagonists. The GTPγS binding assay is started with addition of the mixture membrane/saponine/GDP and incubated for 90 minutes at room temperature. The amount of bound [^35S]GTPγS is determined by using the MicroBeta Trilux counter (PerkinElmer). The percentage of [^35S]GTPγS bound in each sample is calculated as a percentage of that bound control sample incubated in absence of H3 antagonist. Duplicate determinations are obtained for each concentration, and the data are analyzed using ExcelFit4 to obtain the IC50.

T1 sequence (Q9Y5N1 whole entry): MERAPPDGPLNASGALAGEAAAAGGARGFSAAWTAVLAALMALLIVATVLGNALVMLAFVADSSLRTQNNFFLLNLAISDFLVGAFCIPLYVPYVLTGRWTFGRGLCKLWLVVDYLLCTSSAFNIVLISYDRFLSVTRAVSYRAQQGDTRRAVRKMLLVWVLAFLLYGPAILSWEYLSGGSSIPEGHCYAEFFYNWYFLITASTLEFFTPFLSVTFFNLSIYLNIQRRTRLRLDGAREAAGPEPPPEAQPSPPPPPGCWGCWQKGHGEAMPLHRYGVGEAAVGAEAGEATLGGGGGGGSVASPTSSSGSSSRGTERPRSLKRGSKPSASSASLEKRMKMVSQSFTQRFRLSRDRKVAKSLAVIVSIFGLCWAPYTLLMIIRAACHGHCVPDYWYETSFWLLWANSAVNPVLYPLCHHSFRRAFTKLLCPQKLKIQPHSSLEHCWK

| IC50 | Structure (SMILES) |
| --- | --- |
| 17.8 nM | O=C(C1CC2(CCN(c3cccnc3)CC2)C1)N1CCN(C2CCC2)CC1 [Example 1, (4-cyclobutylpiperazin-1-yl)(7-(pyridin-3-yl)-7-azaspiro[3.5]nonan-2-yl)methanone] |
| 27 nM | O=C(C1CC2(CCN(c3ccccn3)CC2)C1)N1CCN(C2CCC2)CC1 [Example 2, (4-cyclobutylpiperazin-1-yl)(7-(pyridin-2-yl)-7-azaspiro[3.5]nonan-2-yl)methanone] |
| 72.9 nM | O=C(C1CC2(CCN(c3ccccc3)CC2)C1)N1CCN(C2CCC2)CC1 [Example 3, (4-cyclobutylpiperazin-1-yl)(7-phenyl-7-azaspiro[3.5]nonan-2-yl)methanone] |
| 15.4 nM | CC(C)S(=O)(=O)N1CCC2(CC1)CC(C(=O)N1CCN(C3CCC3)CC1)C2 [Example 4, (4-cyclobutylpiperazin-1-yl)(7-(isopropylsulfonyl)-7-azaspiro[3.5]nonan-2-yl)methanone] |
| 7.29 nM | CS(=O)(=O)N1CCC2(CC1)CC(C(=O)N1CCN(C3CCC3)CC1)C2 [Example 5, (4-cyclobutylpiperazin-1-yl)(7-(methylsulfonyl)-7-azaspiro[3.5]nonan-2-yl)methanone] |
| 6.56 nM | O=C(C1CC2(CCN(S(=O)(=O)c3ccccc3)CC2)C1)N1CCN(C2CCC2)CC1 [Example 6, (4-cyclobutylpiperazin-1-yl)(7-(phenylsulfonyl)-7-azaspiro[3.5]nonan-2-yl)methanone] |
| 52.9 nM | O=C(C1CCCCC1)N1CCC2(CC1)CC(C(=O)N1CCN(C3CCC3)CC1)C2 [Example 7, (4-cyclobutylpiperazin-1-yl)(7-(cyclohexanecarbonyl)-7-azaspiro[3.5]nonan-2-yl)methanone] |
| 22.9 nM | CCc1cnccc1C(=O)N1CCC2(CC1)CC(C(=O)N1CCN(C3CCC3)CC1)C2 [Example 8, (4-cyclobutylpiperazin-1-yl)(7-(3-ethylisonicotinoyl)-7-azaspiro[3.5]nonan-2-yl)methanone] |
| 20.8 nM | O=C(c1cncc(Cl)c1)N1CCC2(CC1)CC(C(=O)N1CCN(C3CCC3)CC1)C2 [Example 9, (7-(5-chloronicotinoyl)-7-azaspiro[3.5]nonan-2-yl)(4-cyclobutylpiperazin-1-yl)methanone] |
| 29.6 nM | O=C(c1cnccc1Cl)N1CCC2(CC1)CC(C(=O)N1CCN(C3CCC3)CC1)C2 [Example 10, (7-(4-chloronicotinoyl)-7-azaspiro[3.5]nonan-2-yl)(4-cyclobutylpiperazin-1-yl)methanone] |
| 16.9 nM | Cc1ccnc(C)c1C(=O)N1CCC2(CC1)CC(C(=O)N1CCN(C3CCC3)CC1)C2 [Example 11, (4-cyclobutylpiperazin-1-yl)(7-(2,4-dimethylnicotinoyl)-7-azaspiro[3.5]nonan-2-yl)methanone] |
| 26.2 nM | Cc1ccc(C(=O)N2CCC3(CC2)CC(C(=O)N2CCN(C4CCC4)CC2)C3)cn1 [Example 12, (4-cyclobutylpiperazin-1-yl)(7-(6-methylnicotinoyl)-7-azaspiro[3.5]nonan-2-yl)methanone] |
| 28.1 nM | Cc1ncccc1C(=O)N1CCC2(CC1)CC(C(=O)N1CCN(C3CCC3)CC1)C2 [Example 13, (4-cyclobutylpiperazin-1-yl)(7-(2-methylnicotinoyl)-7-azaspiro[3.5]nonan-2-yl)methanone] |
| 41.5 nM | Cc1ccncc1C(=O)N1CCC2(CC1)CC(C(=O)N1CCN(C3CCC3)CC1)C2 [Example 14, (4-cyclobutylpiperazin-1-yl)(7-(4-methylnicotinoyl)-7-azaspiro[3.5]nonan-2-yl)methanone] |
| 31.3 nM | N#Cc1ccc(C(=O)N2CCC3(CC2)CC(C(=O)N2CCN(C4CCC4)CC2)C3)nc1 [Example 15, 6-(2-(4-cyclobutylpiperazine-1-carbonyl)-7-azaspiro[3.5]nonane-7-carbonyl)nicotinonitrile] |
| 80.4 nM | O=C(c1ncc(F)cc1F)N1CCC2(CC1)CC(C(=O)N1CCN(C3CCC3)CC1)C2 [Example 16, (4-cyclobutylpiperazin-1-yl)(7-(3,5-difluoropicolinoyl)-7-azaspiro[3.5]nonan-2-yl)methanone] |
| 35 nM | O=C(c1cc(Cl)ccn1)N1CCC2(CC1)CC(C(=O)N1CCN(C3CCC3)CC1)C2 [Example 17, (7-(4-chloropicolinoyl)-7-azaspiro[3.5]nonan-2-yl)(4-cyclobutylpiperazin-1-yl)methanone] |
| 54 nM | Cc1cccc(C(=O)N2CCC3(CC2)CC(C(=O)N2CCN(C4CCC4)CC2)C3)n1 [Example 18, (4-cyclobutylpiperazin-1-yl)(7-(6-methylpicolinoyl)-7-azaspiro[3.5]nonan-2-yl)methanone] |
| 24.5 nM | Cc1cccnc1C(=O)N1CCC2(CC1)CC(C(=O)N1CCN(C3CCC3)CC1)C2 [Example 19, (4-cyclobutylpiperazin-1-yl)(7-(3-methylpicolinoyl)-7-azaspiro[3.5]nonan-2-yl)methanone] |
| 48 nM | O=C(c1ccccn1)N1CCC2(CC1)CC(C(=O)N1CCN(C3CCC3)CC1)C2 [Example 20, (4-cyclobutylpiperazin-1-yl)(7-picolinoyl-7-azaspiro[3.5]nonan-2-yl)methanone] |
| 18.2 nM | O=C(c1cccnc1)N1CCC2(CC1)CC(C(=O)N1CCN(C3CCC3)CC1)C2 [Example 21, (4-cyclobutylpiperazin-1-yl)(7-nicotinoyl-7-azaspiro[3.5]nonan-2-yl)methanone] |
| 12.6 nM | O=C(c1ccncc1)N1CCC2(CC1)CC(C(=O)N1CCN(C3CCC3)CC1)C2 [Example 22, (4-cyclobutylpiperazin-1-yl)(7-isonicotinoyl-7-azaspiro[3.5]nonan-2-yl)methanone] |
| 6.06 nM | Cc1cnccc1C(=O)N1CCC2(CC1)CC(C(=O)N1CCN(C3CCC3)CC1)C2 [Example 23, (4-cyclobutylpiperazin-1-yl)(7-(3-methylisonicotinoyl)-7-azaspiro[3.5]nonan-2-yl)methanone] |
| 21.8 nM | Cc1cc(C(=O)N2CCC3(CC2)CC(C(=O)N2CCN(C4CCC4)CC2)C3)ccn1 [Example 24, (4-cyclobutylpiperazin-1-yl)(7-(2-methylisonicotinoyl)-7-azaspiro[3.5]nonan-2-yl)methanone] |
| 12.5 nM | Cc1cncc(C(=O)N2CCC3(CC2)CC(C(=O)N2CCN(C4CCC4)CC2)C3)c1 [Example 25, (4-cyclobutylpiperazin-1-yl)(7-(5-methylnicotinoyl)-7-azaspiro[3.5]nonan-2-yl)methanone] |
| 23.8 nM | COc1cc(C(=O)N2CCC3(CC2)CC(C(=O)N2CCN(C4CCC4)CC2)C3)ccn1 [Example 26, (4-cyclobutylpiperazin-1-yl)(7-(2-methoxyisonicotinoyl)-7-azaspiro[3.5]nonan-2-yl)methanone] |
| 12.6 nM | O=C(Cc1cccnc1)N1CCC2(CC1)CC(C(=O)N1CCN(C3CCC3)CC1)C2 [Example 27, 1-(2-(4-cyclobutylpiperazine-1-carbonyl)-7-azaspiro[3.5]nonan-7-yl)-2-(pyridin-3-yl)ethanone] |
| 13.8 nM | O=C(Cc1ccncc1)N1CCC2(CC1)CC(C(=O)N1CCN(C3CCC3)CC1)C2 [Example 28, 1-(2-(4-cyclobutylpiperazine-1-carbonyl)-7-azaspiro[3.5]nonan-7-yl)-2-(pyridin-4-yl)ethanone] |
| 19.7 nM | O=C(CCc1ccncc1)N1CCC2(CC1)CC(C(=O)N1CCN(C3CCC3)CC1)C2 [Example 29, 1-(2-(4-cyclobutylpiperazine-1-carbonyl)-7-azaspiro[3.5]nonan-7-yl)-3-(pyridin-4-yl)propan-1-one] |

From US20100130477A1, “Spirocyclobutyl Piperidine Derivatives” (ASTRAZENECA AB, priority 2008, published 2010)
